{"source": "patent US20090281054A1", "about": "“COMPOSITIONS AND METHODS COMPRISING CAPURAMYCIN ANALOGUES” (priority 2008, published 2009)", "key": {"[1]": {"test_system": "M. smegmatis (MSMG; MC2155)", "assay": "MIC by microdilution method in 7H9 broth", "assay_type": "cell-based", "settings": "MSMG MC^2155, 72 hr"}, "MTB in macrophages": {"test_system": "MTB in macrophages", "assay_type": "cell-based, Mycobacterium tuberculosis"}, "MTB [2]": {"test_system": "MTB", "assay": "In vivo efficacy in mouse model of chronic TB disease (lung CFU)", "settings": "mice treated for 3 wk, starting 3 wk after infection, gav, ip, iv", "protocol": "In vivo activity against MTB. In vivo efficacy of CM analogues was investigated in a mouse model of chronic TB disease (FIG. 2). Three wk after infection, mice were treated for 3 wk with the drugs by gavage (gav), intraperitoneal injection (ip), intravenous injection (iv), or intranasal (in) routes. Efficacy was analyzed by determining Colony-Forming Units (CFU) in lungs. […] Each achieved a decrease of 1-log10 lung CFU compared to the late control [LC] CFU by at least one route, which varied for each drug."}, "MTB [3]": {"test_system": "MTB", "assay": "Synergy by checkerboard titration (microdilution)", "assay_type": "cell-based, Mycobacterium tuberculosis", "protocol": "Synergistic activity with other anti-TB drugs against MSMG, MTB, MAB, and MAC. Synergy with other anti-mycobacterial drugs was determined in two drug combinations by checkerboard titration using a microdilution method. Fractional inhibitory concentration (FIC) is the MIC in combination divided by the MIC of individual drug. An FIC index (ΣFIC) of ≦0.5 indicates synergistic activity, ≧4.0 antagonistic activity and in between, additive effect. Synergistic activity was determined against MSMG, MTB, MAB and MAC. All the three CM analogues were tested in combination with INH, RIF, EMB and SM against MSMG. Similarly, all the three CM analogues were tested in combination with INH, EMB, SM and SQ109 against MTB. Only SQ641 was tested in combination with EMB, clarithromycin (CLA) and amikacin (AMK) against MAC."}, "translocase I": {"target": "translocase I (Escherichia coli, UniProt P0A6W3)", "sequence (P0A6W3 whole entry)": "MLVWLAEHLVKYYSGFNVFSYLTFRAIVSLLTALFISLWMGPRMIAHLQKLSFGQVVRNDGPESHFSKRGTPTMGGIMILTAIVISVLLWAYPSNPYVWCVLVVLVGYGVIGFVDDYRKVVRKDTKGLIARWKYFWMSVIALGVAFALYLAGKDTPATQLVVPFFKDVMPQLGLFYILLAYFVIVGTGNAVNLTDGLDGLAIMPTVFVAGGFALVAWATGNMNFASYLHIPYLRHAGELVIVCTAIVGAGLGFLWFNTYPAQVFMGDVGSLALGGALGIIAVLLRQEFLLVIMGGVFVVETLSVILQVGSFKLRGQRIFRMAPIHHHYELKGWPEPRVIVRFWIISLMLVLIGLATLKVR", "assay": "IC50 against translocase I", "assay_type": "biochemical"}, "M. smegmatis": {"test_system": "M. smegmatis", "assay": "Synergy by checkerboard titration (microdilution)", "assay_type": "cell-based"}, "MSMG and MTB (H37Rv)": {"test_system": "MSMG and MTB (H37Rv)", "assay": "Minimum bactericidal concentration (MBC), MBC/MIC ratio", "assay_type": "cell-based, Mycobacterium tuberculosis; M. smegmatis"}, "M. avium complex (MAC)": {"test_system": "M. avium complex (MAC)", "assay": "MIC by microdilution method in 7H9 broth", "assay_type": "cell-based"}, "M. abscessus": {"test_system": "M. abscessus", "assay": "Synergy by checkerboard titration (microdilution)", "assay_type": "cell-based"}, "MTB in J774A.1 cells": {"test_system": "MTB in J774A.1 cells", "assay": "Intracellular activity of SQ641 with efflux pump blockers", "assay_type": "cell-based, Mycobacterium tuberculosis", "settings": "4 days exposure"}}, "note": "Read-outs that look alike come from different tables or passages of the source."}
{"smiles": "CCCCCCCCCC(=O)O[C@@H]1[C@H](OC)[C@@H]([C@@H](O[C@H]2OC(C(=O)N[C@H]3CCC[C@@H](C)NC3=O)=C[C@H](O)[C@@H]2O)C(N)=O)O[C@H]1n1ccc(=O)[nH]c1=O", "note": "[SQ641]", "values": [{"measurement": "MIC", "setting": "[1]", "result": 2, "unit": "µg/mL"}, {"measurement": "MIC", "setting": "[1]; Mycolicibacterium smegmatis, MC2155|MC^2155, read-out: MIC", "result": 2, "unit": "µg/mL"}, {"measurement": "RLU lower than the drug dissolved in DMSO", "setting": "MTB in macrophages", "result": "about 50%"}, {"measurement": "Mean RLU on day 7", "setting": "MTB in macrophages; SQ641 2 μg/ml, day 0 RLU 1397, Control day 7 9075", "result": 3535, "unit": "RLU"}, {"measurement": "Routes by which replication of MTB in lungs was prevented (vs early control)", "setting": "MTB [2]", "result": "all but intranasal"}, {"measurement": "Synergy with other anti-mycobacterial drugs", "setting": "MTB [3]", "result": "synergistic activity with EMB, the new diamine antitubercular SQ109, and streptomycin against MTB"}, {"measurement": "ΣFIC", "setting": "MTB [3]; SQ641 + EMB", "result": 0.156}, {"measurement": "IC50 against translocase I", "setting": "translocase I", "result": 0.55, "unit": "µg/mL"}, {"measurement": "ΣFIC", "setting": "M. smegmatis; M. smegmatis, SQ641 + EMB", "result": 0.375}, {"measurement": "ΣFIC", "setting": "M. smegmatis; M. smegmatis, SQ641 + INH", "result": 0.25}, {"measurement": "ΣFIC", "setting": "M. smegmatis; M. smegmatis, SQ641 + RIF", "result": 0.75}, {"measurement": "ΣFIC", "setting": "M. smegmatis; M. smegmatis, SQ641 + SM", "result": 1.0}, {"measurement": "MIC Combination", "setting": "M. smegmatis; M. smegmatis, combination SQ641 + EMB", "result": 0.25, "unit": "µg/mL"}, {"measurement": "MIC Combination", "setting": "M. smegmatis; M. smegmatis, combination SQ641 + INH", "result": 0.25, "unit": "µg/mL"}, {"measurement": "MIC Combination", "setting": "M. smegmatis; M. smegmatis, combination SQ641 + RIF", "result": 1.0, "unit": "µg/mL"}, {"measurement": "MIC Combination", "setting": "M. smegmatis; M. smegmatis, combination SQ641 + SM", "result": 1.0, "unit": "µg/mL"}, {"measurement": "Synergy with other anti-mycobacterial drugs", "setting": "M. smegmatis; MSMG", "result": "synergy in combination with INH and EMB in MSMG"}, {"measurement": "MIC", "setting": "M. smegmatis; Mycolicibacterium smegmatis, M. smegmatis, drug alone", "result": 2, "unit": "µg/mL"}, {"measurement": "MBC/MIC ratio", "setting": "MSMG and MTB (H37Rv)", "result": 1}, {"measurement": "MIC", "setting": "M. avium complex (MAC); Mycobacterium avium, 336 h, MAC isolates, 2 wk, read-out: MIC (range)", "result": "0.125 to 2", "unit": "µg/mL"}, {"measurement": "MIC", "setting": "M. avium complex (MAC); Mycobacterium avium, MAC strain 100, read-out: MIC", "result": 2, "unit": "µg/mL"}, {"measurement": "MIC", "setting": "M. avium complex (MAC); Mycobacterium avium, MAC strain 101, read-out: MIC", "result": 0.12, "unit": "µg/mL"}, {"measurement": "MIC", "setting": "M. avium complex (MAC); Mycobacterium avium, MAC strain 104, read-out: MIC", "result": 2, "unit": "µg/mL"}, {"measurement": "MIC", "setting": "M. avium complex (MAC); Mycobacterium avium, MAC strain 109, read-out: MIC", "result": 0.12, "unit": "µg/mL"}, {"measurement": "MIC", "setting": "M. avium complex (MAC); Mycobacterium avium, MAC strain A5, read-out: MIC", "result": 0.5, "unit": "µg/mL"}, {"measurement": "MIC", "setting": "M. avium complex (MAC); Mycobacterium avium, MAC strain JSH1, read-out: MIC", "result": 2, "unit": "µg/mL"}, {"measurement": "MIC", "setting": "M. avium complex (MAC); Mycobacterium avium, MAC strain NIH C1-1, read-out: MIC", "result": 0.5, "unit": "µg/mL"}, {"measurement": "MIC", "setting": "M. avium complex (MAC); Mycobacterium avium, MAC strain NIH C1-2, read-out: MIC", "result": 0.25, "unit": "µg/mL"}, {"measurement": "MIC", "setting": "M. avium complex (MAC); Mycobacterium avium, MAC strain NIH C1-3, read-out: MIC", "result": 2, "unit": "µg/mL"}, {"measurement": "MIC", "setting": "M. avium complex (MAC); Mycobacterium avium, MAC strain NIH C1-4, read-out: MIC", "result": 0.5, "unit": "µg/mL"}, {"measurement": "MIC90", "setting": "M. avium complex (MAC); Mycobacterium avium, MAC isolates, value in square brackets, read-out: MIC90", "result": 2, "unit": "µg/mL"}, {"measurement": "MIC range", "setting": "M. avium complex (MAC); ten MAC isolates (Table 6)", "result": "0.125 to 2", "unit": "µg/mL"}, {"measurement": "MIC", "setting": "M. abscessus; Mycobacteroides abscessus, drug alone", "result": 0.5, "unit": "µg/mL"}, {"measurement": "ΣFIC", "setting": "M. abscessus; SQ641 + RFB", "result": 0.25}, {"measurement": "ΣFIC", "setting": "M. abscessus; SQ641 + SM", "result": 0.375}, {"measurement": "MIC Combination", "setting": "M. abscessus; combination SQ641 + RFB", "result": 0.062, "unit": "µg/mL"}, {"measurement": "MIC Combination", "setting": "M. abscessus; combination SQ641 + SM", "result": 0.062, "unit": "µg/mL"}, {"measurement": "Mean RLU at Day 7", "setting": "MTB in J774A.1 cells; SQ641 1 μg/ml + CsA10 (12 μg/ml), Day 0 RLU 811, Control Day 7 3004", "result": 342, "unit": "RLU"}, {"measurement": "Mean RLU at Day 7", "setting": "MTB in J774A.1 cells; SQ641 1 μg/ml + VE10 (5 μg/ml), Day 0 RLU 425, Control Day 7 6283", "result": 686, "unit": "RLU"}, {"measurement": "Mean RLU at Day 7", "setting": "MTB in J774A.1 cells; SQ641 1 μg/ml, Day 0 RLU 425, Control Day 7 6283", "result": 3866, "unit": "RLU"}, {"measurement": "Mean RLU at Day 7", "setting": "MTB in J774A.1 cells; SQ641 1 μg/ml, Day 0 RLU 811, Control Day 7 3004", "result": 2233, "unit": "RLU"}, {"measurement": "Mean RLU at Day 7", "setting": "MTB in J774A.1 cells; SQ641 2 μg/ml + CsA10 (12 μg/ml), Day 0 RLU 811, Control Day 7 3004", "result": 43, "unit": "RLU"}, {"measurement": "Mean RLU at Day 7", "setting": "MTB in J774A.1 cells; SQ641 2 μg/ml + VE10 (5 μg/ml), Day 0 RLU 425, Control Day 7 6283", "result": 509, "unit": "RLU"}, {"measurement": "Mean RLU at Day 7", "setting": "MTB in J774A.1 cells; SQ641 2 μg/ml, Day 0 RLU 425, Control Day 7 6283", "result": 2362, "unit": "RLU"}]}
